Results taken from US20070098649A1, “Method and composition for controlling oral pathogens” (priority 2004, published 2007).
Like-named read-outs stand apart in the source and are kept apart here. Marks after values point to notes of the source that are not given here.

Legend:
wild type S. aureus = settings: cited from earlier work
Streptococcus mutans [1] = test: MIC microdilution assay; assay type: cell-based; settings: Streptococcus mutans, S. mutans
Staphylococcus aureus [2] = test: Combination determination (FIC, MIC in combination); assay type: cell-based; settings: S. aureus; berberine (B-CG) combined with CHX, Tet or Dox; MIC of the named agent in the combination
Method: (§1) The alkaloids were tested in pair-wise combinations (fractional inhibitory concentrations, FIC) against all the bacteria to determine whether interactions were antagonistic (FIC>1), additive (0.5<FIC<1), or synergistic (FIC<0.5). The FIC was calculated by the following: (MIC Acombination/MIC Aalone)+(MIC Bcombination/MIC Balone). Where A represents compound 1 and B represents compound 2. […] In the case of A. actinomycetemcomitans and P. aeruginosa, CHX was used at 0.78 to 50 μg ml^−1. Berberine (B-CG and B-S) was used at concentrations 0.9 to 250 μg ml^−1. The antibacterial efficacy of berberine (1.95 to 500 μg ml^−1) was tested in combination against P. aeruginosa with CHX (0.78 to 50 μg ml^−1) (Sigma Chemicals) and the polymyxin antibiotic Col (0.04 to 25 μg ml^−1) (Sigma Chemicals). The plates were incubated for 24 hours.

Escherichia coli [3] = test: as above; assay type: cell-based; settings: E. coli; berberine (B-CG) combined with CHX, Tet or Dox; MIC of the named agent in the combination
Method: as §1

Fusobacterium nucleatum [4] = test: as above; assay type: cell-based; settings: F. nucleatum; berberine (B-CG) combined with CHX, Tet or Dox; MIC of the named agent in the combination
Method: as §1

[5] = test system: Actinobacillus actinomycetemcomitans; test: as above; assay type: cell-based; settings: A. actinomycetemcomitans grown under anaerobic conditions; berberine (B-CG) combined with CHX, Tet or Dox; MIC of the named agent in the combination
Method: as §1

Pseudomonas aeruginosa [6] = test: as above; assay type: cell-based; settings: P. aeruginosa; berberine combined with CHX or Col; MIC of the named agent in the combination
Method: as §1

Streptococcus gordonii [7] = test: as above; assay type: cell-based; settings: S. gordonii; berberine (B-CG) combined with CHX, Tet or Dox; MIC of the named agent in the combination
Method: as §1

Porphymonas gingivalis [8] = test: as above; assay type: cell-based; settings: P. gingivalis; berberine (B-CG) combined with CHX, Tet or Dox; MIC of the named agent in the combination
Method: as §1

Porphymonas gingivalis [9] = test: MIC microdilution assay; assay type: cell-based; settings: Porphyromonas gingivalis, P. gingivalis
Fusobacterium nucleatum [10] = test: MIC microdilution assay; assay type: cell-based; settings: Fusobacterium nucleatum, F. nucleatum
[11] = rat, in vivo, iv; cited from earlier work
rabbits = settings: s.c.; cited from earlier work
mice = settings: cited from earlier work; for LD50: mice
[12] = test system: Actinobacillus actinomycetemcomitans; test: MIC microdilution assay; assay type: cell-based; settings: Aggregatibacter actinomycetemcomitans
Streptococcus gordonii [13] = test: MIC microdilution assay; assay type: cell-based; settings: Streptococcus gordonii, S. gordonii
Streptococcus mutans [14] = test: Combination determination (FIC, MIC in combination); assay type: cell-based; settings: S. mutans
Method: as §1
CHX was diluted from left to right at 10 to 0.08 μg ml^−1 ([…] 1 to 8), berberine was diluted from top to bottom at 250 to 0.09 μg ml^−1 ([…] 1 to 8). Column 9 was the cell control, column 10 was berberine alone (250 to 0.09 μg ml^−1); and column 11 was CHX alone (10 to 0.08 μg ml^−1). Row H was the solvent control (8% DMSO, H1 to H8). Column 12 was the media blank. The dilution assay was designed such that A1 contained the highest concentration of both agents (berberine 250 μg ml^−1 and CHX 10 μg ml^−1). The final concentration of berberine in wells A2 to A8 was […]. The FIC value was calculated from well C6. FIC was calculated by: (MIC Acombination/MIC Aalone)+(MIC Bcombination/MIC Balone).

Escherichia coli [15] = test: MIC microdilution assay; assay type: cell-based; settings: E. coli, agent alone, read-out: MIC of the antimicrobial agents alone
[16] = in vivo, po; cited from earlier work
Staphylococcus aureus [17] = test: MIC microdilution assay; assay type: cell-based; settings: S. aureus, agent alone, read-out: MIC of the antimicrobial agents alone
Pseudomonas aeruginosa [18] = test: MIC microdilution assay; assay type: cell-based; settings: Pseudomonas aeruginosa; P. aeruginosa; agent alone; read-out: MIC of the antimicrobial agents alone
[19] = test system: patients with heart conditions; settings: human, in vivo; cited from earlier work
A. actinomycetemcomitans [20] = test: Accumulation of berberine, fluorimetric assay; assay type: cell-based; settings: CCCP 100 μM added five minutes after berberine; FIG. 1
Method: Accumulation of berberine in A. actinomycetemcomitans was evaluated using a fluorimetric assay (based in Giraud et al., 2000). Overnight cells were harvested as previously described, washed twice with 50 mM sodium phosphate buffer (pH 7), resuspended in the same buffer at a concentration of 1×10^9 CFU ml^−1. The cells were equilibrated for 10 minutes at 37° C. Berberine was added at a final concentration of 500 μg ml^−1. After addition of berberine, 0.5 ml samples were removed at different time intervals. Five minutes after the addition of berberine, the efflux pump inhibitor carbonyl cyanide m-chlorophenylhydrazone (CCCP) was added to the reaction mixture (final concentration 100 μM). The samples were immediately diluted with 1 ml ice-cold sodium phosphate buffer and then were centrifuged for 5 minutes at 560.0×g. The pellet was washed once with 1 ml ice-cold buffer and resuspended in 1 ml of 0.1 M glycine hydrochloride (pH 3) for at least 15 hours at room temperature. The fluorescence of the supernatant was measured (excitation 355 nm and emission 517 nm) with a spectrofluorimeter (Model 810/814, Photon Technology International, Monmouth Junction, N.J.).

S. gordonii [21] = test: Growth on agar with berberine and/or methylene blue (efflux screen); assay type: cell-based
S. mutans [22] = test: as above; assay type: cell-based
[23] = rats; oral; tritiated; cited from earlier work
P. gingivalis = test: Relative cell surface hydrophobicity (hexanes partition); assay type: cell-based; settings: berberine 500 μg ml^−1
A. actinomycetemcomitans [24] = test: as above; assay type: cell-based; settings: berberine 500 μg ml^−1
S. gordonii [25] = test: as above; assay type: cell-based; settings: berberine 500 μg ml^−1
F. nucleatum [26] = test: as above; assay type: cell-based; settings: berberine 500 μg ml^−1
F. nucleatum [27] = test: Viability assessment (bactericidal activity); assay type: cell-based
Method: (§2) Two representative organisms, S. mutans and F. nucleatum, were used in this study. […] Aliquots of 4 ml of agent, prepared in sterile water, were placed into sterile test tubes and 1 ml of adjusted cells was added. The control consisted of 4 ml of PBS and 1 ml of cells. Samples were removed at 0, 15, 30, and 60 minutes, serial dilutions were performed, and the appropriate dilutions plated out. The plates were incubated at 37° C. under appropriate atmospheric conditions for up to 72 hours. Viable colony counts were determined and compared to nontreated control Percentage kill was calculated using the formula: ([…]×100. Log reduction was also calculated on Log10 transformed data. Effect of Berberine on Cell Surface Hydrophobicity

S. mutans [28] = test: Viability assessment (bactericidal activity); assay type: cell-based
Method: as §2

S. mutans [29] = test: Relative cell surface hydrophobicity (hexanes partition); assay type: cell-based; settings: berberine 500 μg ml^−1
[30] = agent alone, read-out: MIC of the antimicrobial agents alone
[31] = agar with 62.5, 125, 250 μg ml^−1, 48 hours at 37° C.

Compound: COC(=O)[C@H]1[C@H]2C[C@@H]3c4[nH]c5cc(OC)ccc5c4CCN3C[C@H]2C[C@@H](OC(=O)c2cc(OC)c(OC)c(OC)c2)[C@@H]1OC [reserpine]
- Inhibition of the efflux of norfloxacin (wild type S. aureus): at least four

Compound: COc1ccc2cc3[n+](cc2c1OC)CCc1cc2c(cc1-3)OCO2 [Berberine, 5,6-dihydro-9,10-dimethoxybenzo[g]-1,3-benzodioxolo[5,6-a]quinolizinium]
- MIC (Streptococcus mutans [1]; [30]): 125 µg/mL
- MIC (Streptococcus mutans [1]; Sm, read-out: MIC of Goldenseal Alkaloids Against Selected Oral Pathogens): 125 µg/mL
- MIC of the antimicrobial agents in combination (Staphylococcus aureus [2]): 62.5 µg/mL
- MIC of the antimicrobial agents in combination (Escherichia coli [3]): 125 µg/mL
- MIC of the antimicrobial agents in combination (Fusobacterium nucleatum [4]): 3.9 µg/mL
- MIC of the antimicrobial agents in combination [5]: 250 µg/mL
- MIC of the antimicrobial agents in combination (Pseudomonas aeruginosa [6]): 250** μg ml^−1
- MIC of the antimicrobial agents in combination (Streptococcus gordonii [7]): 62.5 µg/mL
- MIC of the antimicrobial agents in combination (Porphymonas gingivalis [8]): 7.81 µg/mL
- MIC (Porphymonas gingivalis [9]; [30]): 23.4 µg/mL
- MIC (Porphymonas gingivalis [9]; Pg, read-out: MIC of Goldenseal Alkaloids Against Selected Oral Pathogens): 15.6 µg/mL
- MIC (Fusobacterium nucleatum [10]; [30]): 15.6 µg/mL
- MIC (Fusobacterium nucleatum [10]; Fn, read-out: MIC of Goldenseal Alkaloids Against Selected Oral Pathogens): 15.6 µg/mL
- Tissue distribution [11]: highest concentrations of berberine were found in the kidneys
- LD50 (rabbits): 100 mg/kg
- LD50 (mice; oral): 329 mg/kg
- LD50 (mice; s.c.): 18 mg/kg
- LD dose (mice; mouse, in vivo, ip): greater than 500 mg/kg
- MIC ([12]; A. actinomycetemcomitans grown under anaerobic conditions, agent alone, read-out: MIC of the antimicrobial agents alone): > 500 µg/mL
- MIC ([12]; Aa, A. actinomycetemcomitans, read-out: MIC of Goldenseal Alkaloids Against Selected Oral Pathogens): > 500 µg/mL
- MIC (Streptococcus gordonii [13]; [30]): 250 µg/mL
- MIC (Streptococcus gordonii [13]; Sg, read-out: MIC of Goldenseal Alkaloids Against Selected Oral Pathogens): 250 µg/mL
- MIC of the antimicrobial agents in combination (Streptococcus mutans [14]; berberine (B-CG) combined with CHX, Tet or Dox, MIC of the named agent in the combination): 62.5 µg/mL
- MIC alone used for the FIC (Streptococcus mutans [14]; same plate, 48 h): 125 µg/mL
- MIC in combination used for the FIC (Streptococcus mutans [14]; well C6, berberine (B-G) with CHX, 48 h): 31.25 µg/mL
- MIC (Escherichia coli [15]): 250 µg/mL
- Further time to clear [16]: four
- Time to reach peak concentrations in plasma [16]: four
- MIC (Staphylococcus aureus [17]): 250 µg/mL
- MIC (Pseudomonas aeruginosa [18]): > 500 µg/mL
- Adverse effect in heart failure patients [19]: ventricular tachycardia in some subjects

Compound: N#CC(C#N)=NNc1cccc(Cl)c1 [CCCP, carbonyl cyanide m-chlorophenylhydrazone]
- Effect on berberine accumulation (A. actinomycetemcomitans [20]): very rapid and marked increase in berberine accumulation

Compound: CN(C)c1ccc2nc3ccc(=[N+](C)C)cc-3sc2c1 [methylene blue (MB), methylene blue]
- Growth on agar in the presence of methylene blue (S. gordonii [21]; 50 μg/ml): did not grow
- Growth on agar in the presence of methylene blue (S. mutans [22]; 50 μg/ml): did not grow

Compound: COc1ccc2cc3[n+](cc2c1OC)CCc1cc2c(cc1-3)OCO2 [berberine chloride]
- Excretion after 48 hours [23]: majority of the administered dose had been excreted in feces
- Time of peak levels in liver and muscles [23]: 12 h

Compound: COc1ccc2cc3[n+](cc2c1OC)CCc1cc2c(cc1-3)OCO2 [B-CG, berberine chloride]
- Typical reduction scores on relative cell surface hydrophobicity (P. gingivalis): 26.7%
- Concentration of B-CG in agar at which growth occurred (S. gordonii [21]; [31]): 62.5 µg/mL
- Concentration of B-CG in agar at which growth occurred (S. mutans [22]; [31]): 62.5 µg/mL
- Typical reduction scores on relative cell surface hydrophobicity (A. actinomycetemcomitans [24]): −31.6%
- Typical reduction scores on relative cell surface hydrophobicity (S. gordonii [25]): 26.1%
- Typical reduction scores on relative cell surface hydrophobicity (F. nucleatum [26]): 29.9%
- Viability after 60 min exposure (mean Log10 reduction of CFU) (F. nucleatum [27]; B-CG (500) μg ml^−1): 2.77 Log10
- Viability after 60 min exposure (mean Log10 reduction of CFU) (F. nucleatum [27]; B-CG (1000) μg ml^−1): 3.22 Log10
- Viability after 60 min exposure (mean Log10 reduction of CFU) (S. mutans [28]; B-CG (500) μg ml^−1): 0 Log10
- Viability after 60 min exposure (mean Log10 reduction of CFU) (S. mutans [28]; B-CG (1000) μg ml^−1): 1 Log10
- Typical reduction scores on relative cell surface hydrophobicity (S. mutans [29]): 14.8%
